Reference: the NIST ThermoML archive (doi:10.1021/acs.jced.8b01039)
Numbers after ± are expanded uncertainties.

Legend:
[1] = xn = mol fraction of the nth substance listed; conditions: Vibrating wire viscometry
[2] = Vibrating wire viscometry

F/C=C/C(F)(F)F [trans-1,3,3,3-tetrafluoropropene] + C=C(F)C(F)(F)F
[1], x1 = 0.5
Conditions | viscosity [mPa·s]
252.3 K, 1000 kPa, Liquid | 0.2935 ± 0.03
252.3 K, 2010 kPa, Liquid | 0.2969 ± 0.03
252.3 K, 3020 kPa, Liquid | 0.3004 ± 0.03
273.2 K, 1000 kPa, Liquid | 0.2271 ± 0.023
273.2 K, 1960 kPa, Liquid | 0.2316 ± 0.024
273.2 K, 2980 kPa, Liquid | 0.2352 ± 0.024
294.2 K, 1010 kPa, Liquid | 0.179 ± 0.018
294.2 K, 1980 kPa, Liquid | 0.1824 ± 0.019
294.2 K, 3000 kPa, Liquid | 0.1858 ± 0.019
348.2 K, 950 kPa, Gas | 0.0132 ± 0.0015
368.2 K, 1050 kPa, Gas | 0.0139 ± 0.0016
368.2 K, 1710 kPa, Gas | 0.0148 ± 0.0017
388.2 K, 1910 kPa, Gas | 0.0156 ± 0.0018
388.2 K, 2700 kPa, Gas | 0.0168 ± 0.0019
403.2 K, 3020 kPa, Gas | 0.0175 ± 0.0019

FC(F)C(F)(F)F [pentafluoroethane]
[2]
Conditions | viscosity [mPa·s]
273.2 K, 1440 kPa, Liquid | 0.2154 ± 0.022
273.2 K, 3260 kPa, Liquid | 0.22 ± 0.022
273.2 K, 4880 kPa, Liquid | 0.224 ± 0.023
273.2 K, 6650 kPa, Liquid | 0.2283 ± 0.023
273.2 K, 8370 kPa, Liquid | 0.2323 ± 0.024
273.2 K, 10120 kPa, Liquid | 0.2364 ± 0.024
273.2 K, 11770 kPa, Liquid | 0.2403 ± 0.024
273.2 K, 13330 kPa, Liquid | 0.2438 ± 0.025
293.3 K, 1680 kPa, Liquid | 0.1739 ± 0.018
293.3 K, 4160 kPa, Liquid | 0.1801 ± 0.018
293.3 K, 6420 kPa, Liquid | 0.1854 ± 0.019
293.3 K, 8490 kPa, Liquid | 0.1902 ± 0.019
293.3 K, 10920 kPa, Liquid | 0.1952 ± 0.02
293.3 K, 13210 kPa, Liquid | 0.2004 ± 0.021
293.3 K, 15530 kPa, Liquid | 0.2052 ± 0.021
293.3 K, 17700 kPa, Liquid | 0.2097 ± 0.021
313.2 K, 1960 kPa, Liquid | 0.14 ± 0.015
313.2 K, 3810 kPa, Liquid | 0.1447 ± 0.015
313.2 K, 5550 kPa, Liquid | 0.1487 ± 0.015
313.2 K, 7210 kPa, Liquid | 0.1525 ± 0.016
313.2 K, 9450 kPa, Liquid | 0.1576 ± 0.016
313.2 K, 11270 kPa, Liquid | 0.1616 ± 0.017
313.2 K, 13140 kPa, Liquid | 0.1653 ± 0.017
333.2 K, 630 kPa, Gas | 0.0116 ± 0.0014
333.2 K, 810 kPa, Gas | 0.0116 ± 0.0014
333.2 K, 1010 kPa, Gas | 0.0117 ± 0.0014
333.2 K, 1300 kPa, Gas | 0.0117 ± 0.0014

F/C=C/C(F)(F)F [trans-1,3,3,3-tetrafluoropropene] + CC(F)(F)F
[1], x2 = 0.5
Conditions | viscosity [mPa·s]
252.3 K, 1030 kPa, Liquid | 0.2653 ± 0.027
252.3 K, 2020 kPa, Liquid | 0.2688 ± 0.027
252.3 K, 3090 kPa, Liquid | 0.2721 ± 0.028
273.2 K, 1070 kPa, Liquid | 0.2044 ± 0.021
273.2 K, 2060 kPa, Liquid | 0.208 ± 0.021
273.2 K, 3130 kPa, Liquid | 0.2113 ± 0.022
293.2 K, 1130 kPa, Liquid | 0.1573 ± 0.016
293.2 K, 2080 kPa, Liquid | 0.1612 ± 0.017
293.2 K, 3090 kPa, Liquid | 0.1652 ± 0.017
323.2 K, 970 kPa, Gas | 0.0123 ± 0.0015
346.2 K, 1080 kPa, Gas | 0.0131 ± 0.0015
346.2 K, 1910 kPa, Gas | 0.0137 ± 0.0016
363.2 K, 2120 kPa, Gas | 0.0146 ± 0.0017
363.2 K, 2720 kPa, Gas | 0.0155 ± 0.0018
383.2 K, 3040 kPa, Gas | 0.0162 ± 0.0018

CC(F)(F)F [1,1,1-trifluoroethane] + C=C(F)C(F)(F)F
[1], x1 = 0.5
Conditions | viscosity [mPa·s]
252.1 K, 2010 kPa, Liquid | 0.2421 ± 0.025
252.1 K, 2520 kPa, Liquid | 0.2439 ± 0.025
252.1 K, 3030 kPa, Liquid | 0.2451 ± 0.025
273.2 K, 910 kPa, Liquid | 0.1824 ± 0.019
273.2 K, 2010 kPa, Liquid | 0.1859 ± 0.019
273.2 K, 2500 kPa, Liquid | 0.187 ± 0.019
273.2 K, 3000 kPa, Liquid | 0.1888 ± 0.019
294.4 K, 1250 kPa, Liquid | 0.1424 ± 0.015
294.4 K, 2010 kPa, Liquid | 0.1453 ± 0.015
294.4 K, 2510 kPa, Liquid | 0.1469 ± 0.015
294.4 K, 3020 kPa, Liquid | 0.1482 ± 0.015
323.2 K, 970 kPa, Gas | 0.0124 ± 0.0015
343.2 K, 1060 kPa, Gas | 0.0133 ± 0.0016
343.2 K, 1840 kPa, Gas | 0.014 ± 0.0016
363.2 K, 2040 kPa, Gas | 0.0149 ± 0.0017
363.2 K, 2750 kPa, Gas | 0.016 ± 0.0018
383.2 K, 3070 kPa, Gas | 0.0168 ± 0.0019

F/C=C/C(F)(F)F [trans-1,3,3,3-tetrafluoropropene] + FC(F)C(F)(F)F
[1], x2 = 0.4933
Conditions | viscosity [mPa·s]
252.3 K, 2010 kPa, Liquid | 0.3181 ± 0.032
252.3 K, 3020 kPa, Liquid | 0.3224 ± 0.033
273.2 K, 1290 kPa, Liquid | 0.2388 ± 0.024
273.2 K, 1990 kPa, Liquid | 0.2407 ± 0.025
273.2 K, 3010 kPa, Liquid | 0.2451 ± 0.025
294.2 K, 1240 kPa, Liquid | 0.1821 ± 0.019
294.2 K, 2000 kPa, Liquid | 0.1861 ± 0.019
294.2 K, 3010 kPa, Liquid | 0.1906 ± 0.019
323.2 K, 960 kPa, Gas | 0.0133 ± 0.0016
343.2 K, 1060 kPa, Gas | 0.0143 ± 0.0016
343.2 K, 1770 kPa, Gas | 0.0149 ± 0.0017
363.2 K, 1960 kPa, Gas | 0.016 ± 0.0018
363.2 K, 2770 kPa, Gas | 0.0173 ± 0.0019
383.2 K, 3110 kPa, Gas | 0.0182 ± 0.002

FC(F)C(F)(F)F [pentafluoroethane] + CC(F)F
[1], x1 = 0.5
Conditions | viscosity [mPa·s]
252.1 K, 1020 kPa, Liquid | 0.2923 ± 0.03
252.1 K, 2000 kPa, Liquid | 0.2944 ± 0.03
252.1 K, 2500 kPa, Liquid | 0.2966 ± 0.03
252.1 K, 3000 kPa, Liquid | 0.299 ± 0.03
252.1 K, 4000 kPa, Liquid | 0.3024 ± 0.031
263.1 K, 1510 kPa, Liquid | 0.2558 ± 0.026
263.1 K, 2010 kPa, Liquid | 0.2574 ± 0.026
263.1 K, 2510 kPa, Liquid | 0.2593 ± 0.026
263.1 K, 3020 kPa, Liquid | 0.2612 ± 0.026
263.1 K, 4010 kPa, Liquid | 0.2643 ± 0.027
274.5 K, 1510 kPa, Liquid | 0.2181 ± 0.022
274.5 K, 2000 kPa, Liquid | 0.2198 ± 0.022
274.5 K, 2510 kPa, Liquid | 0.222 ± 0.023
274.5 K, 3020 kPa, Liquid | 0.2233 ± 0.023
274.5 K, 4010 kPa, Liquid | 0.2261 ± 0.023
294.3 K, 1200 kPa, Liquid | 0.1676 ± 0.017
294.3 K, 1500 kPa, Liquid | 0.1688 ± 0.017
294.3 K, 2000 kPa, Liquid | 0.1704 ± 0.017
294.3 K, 3000 kPa, Liquid | 0.1737 ± 0.018
294.3 K, 4000 kPa, Liquid | 0.1777 ± 0.018
323.2 K, 990 kPa, Gas | 0.0124 ± 0.0015
343.2 K, 1090 kPa, Gas | 0.0132 ± 0.0015
343.2 K, 1800 kPa, Gas | 0.014 ± 0.0016
363.2 K, 2010 kPa, Gas | 0.0147 ± 0.0017
363.2 K, 2780 kPa, Gas | 0.0157 ± 0.0018
383.2 K, 3130 kPa, Gas | 0.0165 ± 0.0018
